According to patent US11667602B2, “Compounds and their use” (AstraZeneca AB, priority 2020, dated 2023):
In brackets after ≈: the same amount, converted by molar mass.

Tests used:
[1] = Human Hepatocyte Stability (Test D); type: in vitro ADME; details: human, cryopreserved pooled human hepatocytes (LiverPool 10-Donor), geometric mean if run multiple times
In short: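 Intrinsic clearance (μL/min/10^6 cells), derived as kV/N from the log-linear loss of parent compound. Compound incubated at 37 °C with cryopreserved pooled human hepatocytes, 0.25×10^6 cells in 0.25 mL L-15; dosing solution 100 μM in acetonitrile. Singlicate incubations, cassette LC-MS; repeats reported as geometric mean.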

[2] = Rat Hepatocyte Stability (Test E); type: in vitro ADME; details: rat, hepatocytes, geometric mean if run multiple times
In short: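 Intrinsic clearance in rat hepatocytes, expressed as μl/min/10^6 cells, following the literature integrated DMPK panel method. Repeat determinations combined as geometric mean.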

human RXFP1 = biological target: T1, human RXFP1 (Homo sapiens, UniProt Q9HBX9); assay: RXFP1 Hu cAMP (Test A); type: cell-based; design: expressed in transfected cells; host or cells: Jump-In T-REx CHO-K1 cells (ThermoFisher), induced with 10 ng/ml doxycycline for 24 h; details: RXFP1 Hu cAMP; for EC50: read-out: Test A EC50
T1 sequence (Q9HBX9 1-757): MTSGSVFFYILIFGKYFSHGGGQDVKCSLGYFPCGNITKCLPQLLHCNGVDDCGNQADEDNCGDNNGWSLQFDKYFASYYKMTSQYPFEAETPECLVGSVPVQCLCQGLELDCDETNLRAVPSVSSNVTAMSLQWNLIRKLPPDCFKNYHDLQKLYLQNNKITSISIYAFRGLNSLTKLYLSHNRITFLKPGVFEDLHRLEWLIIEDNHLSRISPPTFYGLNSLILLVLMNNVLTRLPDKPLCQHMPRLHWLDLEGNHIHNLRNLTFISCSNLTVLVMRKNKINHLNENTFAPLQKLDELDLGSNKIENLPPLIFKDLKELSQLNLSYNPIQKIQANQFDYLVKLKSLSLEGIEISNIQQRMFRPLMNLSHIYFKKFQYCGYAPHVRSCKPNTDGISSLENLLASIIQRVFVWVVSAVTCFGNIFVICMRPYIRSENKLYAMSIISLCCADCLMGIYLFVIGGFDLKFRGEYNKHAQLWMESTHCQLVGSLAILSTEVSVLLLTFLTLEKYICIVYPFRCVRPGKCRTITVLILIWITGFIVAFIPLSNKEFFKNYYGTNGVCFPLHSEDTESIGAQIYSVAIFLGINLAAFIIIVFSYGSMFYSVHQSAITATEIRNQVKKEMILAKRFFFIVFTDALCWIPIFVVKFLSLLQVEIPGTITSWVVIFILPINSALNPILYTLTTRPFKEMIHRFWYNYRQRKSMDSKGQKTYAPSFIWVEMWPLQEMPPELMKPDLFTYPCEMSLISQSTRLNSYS
In short: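 CHO-K1 (Jump-In T-REx), RXFP1 induced w/ 10 ng/ml doxycycline 24 h, cryopreserved. 0.5 mM IBMX final. cAMP by HTRF, 2 h RT, std curve.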

[3] = Human Liver Microsomal Stability (Test C); type: in vitro ADME; details: human, liver microsomes
In short: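 CLint (μl/min/mg protein) derived from compound depletion in human liver microsomes following a published standardized early-DMPK protocol; replicate determinations given as arithmetic mean.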

Solubility (Test F) = type: physicochemical; details: arithmetic mean if run multiple times
Method: The assay was conducted according to the Solubility Assay described in pages 164-167 of Wernevik, J. et al., “A Fully Integrated Assay Panel for Early Drug Metabolism and Pharmacokinetics Profiling”, Assay and Drug Development Technologies, 2020, 18(4), 157-179. Data are reported in Table 36 as solubility ([…]. Where the assay was run multiple times for the same compound, the arithmetic mean is reported.

[4] = Human Plasma Protein Binding (Test B); type: in vitro ADME; details: fraction unbound (fu)
In short: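 Values given as % free (fu) in human plasma, using the method of Wernevik et al. (2020). For compounds tested more than once, the arithmetic mean is given.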

| SMILES | hepatocyte CLint at 1 µM [1] [µL/min/1e6 cells] | hepatocyte CLint [2] [µL/min/1e6 cells] | Test A Sinf (human RXFP1) [%] | EC50 (human RXFP1) [nM] | microsomal CLint [3] [µL/min/mg] | solubility (Solubility (Test F)) [µM] | Test B Human Plasma Protein Binding (% free) [4] [% free] |
| --- | --- | --- | --- | --- | --- | --- | --- |
| COc1cc(F)c(O[C@H]2CC[C@@](C)(C(=O)O)CC2)cc1C(=O)N[C@H]1[C@@H](C(=O)NCC2(C)CCC2)[C@@H]2C=C[C@H]1C2 [Example 417] | 5.1 | 17 | 102 | 9.8 | 24 | 900 (≈ 488 µg/mL) | 4.8 |
| COc1cc(F)c(-c2cnn(CCC(=O)O)c2)cc1C(=O)N[C@@H]1[C@H]2CC[C@H](C2)[C@@H]1C(=O)Nc1cccc(S(=O)(=O)C(F)(F)F)c1 [Example 255] | 13 | 12 | 101 | 550 | 26 | 1000 (≈ 653 µg/mL) | 2 |
| CC(C)Oc1cc(F)c(O[C@H]2CC[C@@](CO)(C(=O)O)CC2)cc1C(=O)N[C@@H]1[C@H]2CC[C@H](C2)[C@@H]1C(=O)NCC1(C)CCC1 [Example 486, (1S,4s)-4-(2-Fluoro-4-isopropoxy-5-(((1S,2R,3S,4R)-3-(((1-methylcyclobutyl)methyl)carbamoyl)bicyclo[2.2.1]heptan-2-yl)carbamoyl)phenoxy)-1-(hydroxymethyl)cyclohexane-1-carboxylic acid] | 22 | 28 | 107 | 7.6 | 35 | 950 (≈ 559 µg/mL) | 6.8 |
| COc1cc(F)c(O[C@H]2CC[C@@H](C(=O)O)CC2)cc1C(=O)N[C@H]1[C@@H](C(=O)Nc2ccc(OC)c(S(=O)(=O)C(F)(F)F)c2)[C@@H]2C=C[C@H]1C2 [Example 497, (1S,4s)-4-(2-Fluoro-4-methoxy-5-(((1R,2R,3S,4S)-3-((4-methoxy-3-((trifluoromethyl)sulfonyl)phenyl)carbamoyl)bicyclo[2.2.1]hept-5-en-2-yl)carbamoyl)phenoxy)cyclohexane-1-carboxylic acid] | 4.4 | 19 | 108 | 320 | < 3 | > 1000 | 3.3 |
| CCC(CC)CNC(=O)[C@H]1[C@@H]2CC[C@@H](C2)[C@H]1NC(=O)c1cc(OC2CCC(C)(C(=O)O)CC2)c(F)cc1OC (stereo partly shown) [Example 43] | 5 | 25 | 106 | 83 | 33 | 770 (≈ 421 µg/mL) | 1.3 |
| COc1cc(C#N)c(O[C@H]2CC[C@@](C)(C(=O)O)CC2)cc1C(=O)N[C@@H]1[C@H]2CC[C@H](C2)[C@@H]1C(=O)NCC(F)(F)C(F)(F)F [Example 102] | 1.9 | 14 | 122 | 160 | 4.4 | 820 (≈ 493 µg/mL) | 12 |
| COc1cc(F)c(-c2ccc(C(N)=O)cc2)cc1C(=O)N[C@H]1[C@@H](C(=O)Nc2cccc(S(=O)(=O)C(F)(F)F)c2)[C@@H]2C=C[C@H]1C2 [Example 270, 6-Fluoro-4-methoxy-N3-((1R,2R,3S,4S)-3-((3-((trifluoromethyl)sulfonyl)phenyl)carbamoyl)bicyclo[2.2.1]hept-5-en-2-yl)-[1,1′-biphenyl]-3,4′-dicarboxamide] | 32 | 38 | 107 | 120 | 120 | 2 (≈ 1.26 µg/mL) | <0.26 |
| COc1cc(F)c(O[C@H]2CC[C@@H](C(=O)O)CC2)cc1C(=O)N[C@@H]1CCC[C@@H]1C(=O)Nc1cccc(S(=O)(=O)C(F)(F)F)c1 [Example 490] | 17 | 16 | 127 | 300 | 30 | 940 (≈ 593 µg/mL) | 1.9 |

Now from value to molecule:

| hepatocyte CLint at 1 µM [1] [µL/min/1e6 cells] | hepatocyte CLint [2] [µL/min/1e6 cells] | Test A Sinf (human RXFP1) [%] | EC50 (human RXFP1) [nM] | microsomal CLint [3] [µL/min/mg] | solubility (Solubility (Test F)) [µM] | Test B Human Plasma Protein Binding (% free) [4] [% free] | SMILES |
| --- | --- | --- | --- | --- | --- | --- | --- |
| 11 | 130 | 104 | 500 | 32 | 750 (≈ 431 µg/mL) | 2.2 | COc1cc(F)c(O[C@H]2CC[C@@H](C(=O)O)CC2)cc1C(=O)N[C@@H]1[C@H]2CC[C@H](C2)[C@@H]1C(=O)Nc1cccc(C(F)F)c1 [Example 10, (1S,4s)-4-(5-(((1S,2R,3S,4R)-3-((3-(Difluoromethyl)phenyl)carbamoyl)bicyclo[2.2.1]heptan-2-yl)carbamoyl)-2-fluoro-4-methoxyphenoxy)cyclohexane-1-carboxylic acid] |
| 7.2 | 13 | 101 | 250 | 9.4 | 400 (≈ 259 µg/mL) | <0.31 | COc1cc(F)c(Oc2ccc(C(=O)O)cc2)cc1C(=O)N[C@H]1[C@@H](C(=O)Nc2cccc(S(=O)(=O)C(F)(F)F)c2)[C@@H]2C=C[C@H]1C2 (racemic) [Example 484] |
| 5.4 | 18 | 103 |  | < 3 | 700 (≈ 443 µg/mL) | <0.30 | COc1cc(F)c(-c2cccc(C(=O)O)c2)cc1C(=O)N[C@H]1[C@@H](C(=O)Nc2cccc(S(=O)(=O)C(F)(F)F)c2)[C@@H]2C=C[C@H]1C2 (single isomer, unassigned) [Example 554] |
| 150 | > 300 | 103 |  | 63 | 880 (≈ 567 µg/mL) | 1.4 | COc1cc(F)c(OCCCCCC(=O)O)cc1C(=O)N[C@@H]1[C@H]2CC[C@H](C2)[C@@H]1C(=O)Nc1cccc(S(=O)(=O)C(F)(F)F)c1 [Example 435, 6-(2-Fluoro-4-methoxy-5-(((1S,2R,3S,4R)-3-((3-((trifluoromethyl)sulfonyl)phenyl)carbamoyl)bicyclo[2.2.1]heptan-2-yl)carbamoyl)phenoxy)hexanoic acid] |
